Data set [1] relates to MCF-7 human breast cancer cells. Description: XTT cytotoxicity assay. The format is cell-based. The following applies: MCF7, MCF-7 cells, 72 hours. Here is the method:
The XTT assay is a non-radioactive alternative for the [^51Cr] release cytotoxicity assay. XTT is a tetrazolium salt that is reduced to a formazan dye only by metabolically active, viable cells. The reduction of XTT is measured spectrophotometrically as OD490-OD650.
To measure the cytotoxicity of specific compounds against cancer cells, 9×10^3 MCF-7 human breast cancer cells, obtained from the American Type Culture Collection are plated per well in 96 well plates in DMEM medium with 10% fetal bovine serum, msulin, penicillin, and streptomycin. Following overnight culture at 37° C. and 5% CO2, the compounds to be tested, dissolved in DMSO, are added to the wells in 1 μl volume at the following concentrations: 80, 40, 20, 10, 5, 2.5, 1.25, and 0.625 μg/ml in triplicate. Additional concentrations are tested if required. 1 μl of DMSO is added to triplicate wells are the vehicle control. C75 is run at 40, 20, […], and 5 μg/ml in triplicate as positive controls.
After 72 hours of incubation, cells are incubated for 4 hours with the XTT reagent as per manufacturer's instructions (Cell Proliferation Kit II (XTT) Roche). Plates are read at OD490 and OD650 on a Molecular Devices SpectraMax Plus Spectrophotometer. Three wells containing the All reagent without cells serve as the plate blank. XTT data are reported as OD490-OD650. Averages and standard error of the mean are computed using SOFTmax Pro software ([…]).
The IC50 for the compounds is defined as the concentration of drug leading to a 50% reduction in OD490-OD650 compared to controls. The OD490-OD650 are computed by the SOFTmax PRO software Molecular Devices) for each compound concentration. IC50 is calculated by linear regression, plotting the FAS activity as percent of control versus drug concentrations. Linear regression, best-fit line, r^2, and 95% confidence intervals are determined using Prism Version 3.0 (Graph Pad Software).

Data set [2] is described as follows: Weight loss screen in Balb/C mice. It is filed as in vivo. The procedure: Weight Loss Screen for Novel FAS Inhibitors
Balb/C mice (Jackson Labs) are utilized for the initial weight loss screening. Animals are housed in temperature and 12 hour day/night cycle rooms and fed mouse chow and water ad lib. Three mice are utilized for each compound tested with vehicle controls in triplicate per experiment. For the experiments, mice are housed separately for each compound tested three mice to a cage. Compounds are diluted in DMSO at 10 mg/ml when given at a dose of 30 mg/kg, and 30 mg/ml when given at a dose of 60 mg/kg, and mice are injected intraperitoneally with 60 mg/kg in approximately 100 μl of DMSO or with vehicle alone. Mice are observed and weighed daily; average weights and standard errors are computed with Excel (Microsoft). The experiment continues until treated animals reach their pretreatment weights. Select compounds are tested in animals housed in metabolic cages.
Dosing of animals are identical to the screening experiments with three animals to a single metabolic cage. Animal weights, water and food consumption, and urine and feces production are measured daily. Three lean Balb/C mice (Harlan) maintained on mouse chow, are treated with compounds at doses indicated on day 0 or with vehicle (DMSO) control of equal volume. Compound 6 was solubilized in 40 μl DMSO while Compound 8 was solubilized in 60 μl DMSO. All were injected intraperitoneally. Weights were measured on days indicated. Error bars represent standard error of the mean.

[3] abbreviates: 30 mg/kg i.p., day 1, three Balb/C mice per compound.

Values after ≈ are worked out from the molar mass of the structure shown.

As for `C=CCNC(=O)C1=C(C)C(=O)O[C@H]1CCCCCCCC`, the midpoint of inhibition in data set [1], the IC50, lay at 27.8 ± 3.8 µg/mL (≈ 94.7 µM).

For `C=C1C(=O)O[C@@H](CCCCCCCC)[C@@H]1C(=O)NCC(=O)OC` (racemic), in data set [1], the IC50 (in general, the point on the concentration scale where inhibition reaches its midpoint) was determined as 2 ± 0.5 µg/mL (≈ 6.15 µM). Moreover, in data set [2] (setting [3]), the “Deaths in weight loss screen” value is 3 of 3 dead. `C=CCNC(=O)[C@@H]1C(=C)C(=O)O[C@H]1CCCCCCCC` (racemic) came in with an IC50 in data set [1] of 0.81 ± 0.01 µg/mL (≈ 2.76 µM). In addition, in data set [2] (60 mg/kg i.p., day 3, three Balb/C mice per compound), the “Deaths in weight loss screen” value is reported as 3 of 3 dead. As to `C=CCNC(=O)[C@@H]1C(=C)C(=O)O[C@H]1CCCC` (racemic), in data set [1], 2.4 ± 0.2 µg/mL (≈ 10.1 µM) corresponded to half-maximal inhibition (IC50). Further, the “Deaths in weight loss screen” value in data set [2] (30 mg/kg i.p., day 2, three Balb/C mice per compound) was 3 of 3 dead. Take `C=C1C(=O)O[C@@H](CCCCCCCC)[C@@H]1C(=O)NCC(=O)O` (racemic): the IC50 in data set [1] was more than 80 µg/mL. The “Deaths in weight loss screen” value in data set [2] (30 mg/kg i.p., day 6, three Balb/C mice per compound) is 1 death. Consider `C=CCNC(=O)[C@@H]1C(=C)C(=O)O[C@H]1CCCCCC` (racemic), for which the IC50 in data set [1] amounted to 1.6 ± 0.1 µg/mL (≈ 6.03 µM). In addition, the “Deaths in weight loss screen” value in data set [2] (setting [3]) is listed as 1 of 3 dead. Consider `C=C1C(=O)O[C@@H](CCCCCCCC)[C@@H]1C(=O)NCCO` (racemic), for which, in data set [1], half-maximal inhibition (IC50) was put at 4.1 ± 2.2 µg/mL (≈ 13.8 µM). On the same count and under the same terms, the value for `CCCCCCCCC1OC(=O)[C@H](C)[C@H]1C(=O)O` (stereo partly shown) was more than 80 µg/mL; that for `C=CCNC(=O)[C@H]1[C@H](CCCCCCCC)OC(=O)[C@H]1C` (racemic) was 59.4 ± 6.4 µg/mL (≈ 201 µM). On the same count and under the same terms, the value for `CCCCCCCCC1OC(=O)[C@@H](C)[C@H]1C(=O)O` (stereo partly shown) was more than 80 µg/mL. `C=CCNC(=O)[C@H]1[C@H](CCCCCCCC)OC(=O)[C@@H]1C` (racemic) registered an IC50 in data set [1] of 20.8 ± 7.1 µg/mL (≈ 70.4 µM).

The record behind these values is patent US20060241177A1, “Novel compounds, pharmaceutical compositions containing same, and methods of use for same” (priority 2002, published 2006).
